Reference: patent publication US20160221932A1, “Methods and Uses of Melatonin Ligands” (priority 2013, published 2016)
Entries after “also recorded” stand apart in the source; their conditions may differ.

Key:
[1] = target: T1, human MT2 receptor (Homo sapiens, UniProt P49286); assay: 2-[125I]iodomelatonin competition binding, human MT2 in CHO cells
T1 construct: expressed in transfected cells
T1 sequence (P49286 1-362): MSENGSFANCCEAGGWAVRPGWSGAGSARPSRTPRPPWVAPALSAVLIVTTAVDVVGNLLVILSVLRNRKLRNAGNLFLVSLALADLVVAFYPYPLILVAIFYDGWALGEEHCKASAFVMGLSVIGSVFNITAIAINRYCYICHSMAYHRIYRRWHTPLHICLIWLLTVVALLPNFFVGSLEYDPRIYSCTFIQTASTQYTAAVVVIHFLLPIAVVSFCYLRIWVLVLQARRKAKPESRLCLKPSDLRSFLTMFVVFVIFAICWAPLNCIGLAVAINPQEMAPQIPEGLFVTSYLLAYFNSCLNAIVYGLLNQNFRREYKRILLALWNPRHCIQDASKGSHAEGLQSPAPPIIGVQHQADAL

[2] = system: Wistar rats; assay: hot plate test; format: in vivo, rat; conditions: for withdrawal temperature compared to untreated rats: summary statement, dose not stated
Protocol: Animals: Wistar rats (150-250 g, Charles-River Saint-Constant, Quebec, Canada) were used for the formalin test, hot plate test and L5-L6 spinal nerves ligature model. The animals were housed at constant room temperature and humidity under a 12 h light/dark cycle (lights on at 7 AM). Food and water were available ad libitum. Hot plate test: The hot-plate test was performed by using an electronically controlled hot-plate (Ugo Basile, Italy). The initial temperature was 38° C. A near linear increase in temperature (3° C. per min) was obtained by turning the heating adjustment to maximum. The temperature at which the fast hindpaw lick occurred was recorded as the nociceptive end-point. If no hindpaw lick was observed, the test was terminated at 52° C., and this cut-off value was used in the analysis. The plate was wiped with a wet cloth, and a fan located behind the plate allowed rapid cooling so that testing could be conducted every 7.5 min. Statistical Analysis: Data analysis was done using SigmaPlot 12 (Systat Software, Inc.). Two-way ANOVA for repeated measures was used to analyze data from L5-L6 models using treatments (between) and testing time (within) as factors. One-way ANOVA was used to analyze AUC in the L5-L6 spinal nerves ligation model. One-way ANOVA was used for formalin and hot-plate tests. Post-hoc analyses were performed using Bonferroni t-test comparisons or Student-Newman-Keuls (SNK) test. All data are expressed as mean±Standard Error of the Mean (SEM). P<0.05 was considered significant.

[3] = system: Wistar rats; assay: formalin test; format: in vivo, rat; conditions: for licking time vs vehicle, first phase / licking time vs vehicle, second phase / licking time vs vehicle, total time: 30 min prior to test; for licking time compared to untreated rats: summary statement, dose not stated
Protocol: Animals: Wistar rats (150-250 g, Charles-River Saint-Constant, Quebec, Canada) were used for the formalin test, hot plate test and L5-L6 spinal nerves ligature model. The animals were housed at constant room temperature and humidity under a 12 h light/dark cycle (lights on at 7 AM). Food and water were available ad libitum.
Formalin Test: Antinociception was assessed using the formalin test (Dubuisson and Dennis, 1977). Rats were placed in open Plexiglas observation chambers for 60 min to allow them to acclimatize to their surroundings; then they were removed for formalin administration. Rats were gently restrained while the dorsal surface of the right hindpaw was injected with […] of 1% formalin (37% formaldehyde solution further diluted in saline solution) with a 30-gauge needle. The animals were returned to the chambers and nociceptive behavior was observed immediately after formalin injection. Mirrors were placed in each chamber to enable unhindered observation. Licking/biting behavior directed to the formalin injected paw was scored in 5 min intervals considering number and duration of the licking. Cumulative behavior for the total duration of the test as well as the first (0-10 min) and second phase (20-50 min) was then analyzed (Sufka et al., 1998).The initial acute phase (0-10 min) was followed by a relatively short quiescent period, which was then followed by a prolonged tonic response (15-60 min). The first phase is considered to be the result of direct stimulation of nociceptors, whereas inflammation process contributes to phase 2 activity (Hunskaar and Hole, 1987). At the end of the experiment the rats were sacrificed in a CO2 chamber.
Statistical Analysis: Data analysis was done using SigmaPlot 12 (Systat Software, Inc.). Two-way ANOVA for repeated measures was used to analyze data from L5-L6 models using treatments (between) and testing time (within) as factors. One-way ANOVA was used to analyze AUC in the L5-L6 spinal nerves ligation model. One-way ANOVA was used for formalin and hot-plate tests. Post-hoc analyses were performed using Bonferroni t-test comparisons or Student-Newman-Keuls (SNK) test. All data are expressed as mean±Standard Error of the Mean (SEM). P<0.05 was considered significant.

[4] = 20 mg/kg s.c., 30 min post treatment
[5] = 20 mg/kg s.c., 1 hour post treatment
[6] = 20 mg/kg s.c., 4 hours post treatment
[7] = 40 mg/kg, 1 hour post treatment
[8] = 40 mg/kg, 4 hours post treatment

Structure (SMILES)	Ki ([1]; human MT2 stably expressed in CHO cells, calculated from IC50 by Cheng and Prusoff, read-out: MT2 pKi (converted)) [pM]	withdrawal temperature vs vehicle [2, 4]	withdrawal temperature vs vehicle [2, 5]	withdrawal temperature vs vehicle [2, 6]	withdrawal temperature vs vehicle [2, 7]	withdrawal temperature vs vehicle [2, 8]	withdrawal temperature compared to untreated rats [2]	licking time vs vehicle, first phase ([3]; 10 mg/kg)	licking time vs vehicle, second phase ([3]; 10 mg/kg)	licking time vs vehicle, first phase ([3]; 20 mg/kg s.c.)	licking time vs vehicle, second phase ([3]; 20 mg/kg s.c.)	licking time vs vehicle, total time ([3]; 20 mg/kg s.c.)	licking time vs vehicle, first phase ([3]; 40 mg/kg)	licking time vs vehicle, second phase ([3]; 40 mg/kg)	licking time vs vehicle, total time ([3]; 40 mg/kg)	licking time compared to untreated rats [3]	MT2 affinity compared with melatonin [1]	MT2-selectivity ([1]; MT2 versus MT1)	MT2 pKi ([1]; human MT2 stably expressed in CHO cells, calculated from IC50 by Cheng and Prusoff)	licking time vs vehicle, total time ([3]; 10 mg/kg)
CC(=O)NCCN(c1ccc(F)cc1)c1cccc(Br)c1 [5p, N-{2-[(3-Bromophenyl)-4-fluorophenylamino]ethyl}acetamide]	537	significant increase of the withdrawal temperature	increase of withdrawal temperature; also recorded: increased the withdrawal temperature	significant increase of withdrawal temperature; also recorded: increased the withdrawal temperature	increase of withdrawal temperature	significant increase of withdrawal temperature	significant increase in withdrawal temperature	decrease in the licking time	decreased the licking time	decrease in the licking time; also recorded: decreased the licking time	decreased the licking time; also recorded: decrease of the licking time	reduction of the licking time; also recorded: decrease in the licking time; also recorded: decreased the licking time	decrease in the licking time; also recorded: decreased the licking time	decreased the licking time	reduction of the licking time; also recorded: decreased the licking time	significantly decreased				
COc1cccc(N(CCNC(C)=O)c2ccccc2)c1 [5b, N-{2-[(3-Methoxyphenyl)-phenylamino]ethyl}acetamide]		significant increase of the withdrawal temperature	increase of withdrawal temperature; also recorded: increased the withdrawal temperature	significant increase of withdrawal temperature; also recorded: increased the withdrawal temperature	increase of withdrawal temperature	significant increase of withdrawal temperature	significant increase in withdrawal temperature	decrease in the licking time		decrease in the licking time; also recorded: decreased the licking time	decreased the licking time; also recorded: decrease of the licking time	reduction of the licking time; also recorded: decrease in the licking time; also recorded: decreased the licking time	decrease in the licking time; also recorded: decreased the licking time	decreased the licking time	reduction of the licking time; also recorded: decreased the licking time	significantly decreased	better MT2 affinity than melatonin	good MT2-selectivity	10.18	reduction of the licking time
